Where a name gives a salt, the structure may show the parent alone.
Key:
Human GLP-1R [1] = molecular target: T1, Human GLP-1R (Homo sapiens, UniProt P43220); assay: cell-based or functional assay
[2] = molecular target: T2, human calcitonin receptor (human) (UniProt P30988); assay: cell-based or functional assay
T2 sequence (looked up): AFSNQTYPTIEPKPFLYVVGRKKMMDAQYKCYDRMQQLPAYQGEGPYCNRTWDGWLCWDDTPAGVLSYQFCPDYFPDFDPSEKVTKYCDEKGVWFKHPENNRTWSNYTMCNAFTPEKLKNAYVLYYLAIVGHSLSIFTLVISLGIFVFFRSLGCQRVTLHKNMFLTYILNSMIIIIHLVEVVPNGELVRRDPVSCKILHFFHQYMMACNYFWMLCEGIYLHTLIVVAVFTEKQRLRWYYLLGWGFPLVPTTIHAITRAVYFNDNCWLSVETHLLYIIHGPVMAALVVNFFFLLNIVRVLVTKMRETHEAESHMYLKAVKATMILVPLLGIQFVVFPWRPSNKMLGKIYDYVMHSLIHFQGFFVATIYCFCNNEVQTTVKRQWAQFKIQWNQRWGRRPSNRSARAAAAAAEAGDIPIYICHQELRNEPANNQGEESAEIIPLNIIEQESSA

Human GIPR = molecular target: T3, Human GIPR (Homo sapiens, UniProt P48546); assay: GPCR cell-based cAMP assay, human GIP receptor; settings: stably transfected CHO-Kl cells, 0.1% casein
T3 construct: expressed in transfected cells; host or cells: CHO-K1, stably transfected
T3 sequence (P48546 22-466): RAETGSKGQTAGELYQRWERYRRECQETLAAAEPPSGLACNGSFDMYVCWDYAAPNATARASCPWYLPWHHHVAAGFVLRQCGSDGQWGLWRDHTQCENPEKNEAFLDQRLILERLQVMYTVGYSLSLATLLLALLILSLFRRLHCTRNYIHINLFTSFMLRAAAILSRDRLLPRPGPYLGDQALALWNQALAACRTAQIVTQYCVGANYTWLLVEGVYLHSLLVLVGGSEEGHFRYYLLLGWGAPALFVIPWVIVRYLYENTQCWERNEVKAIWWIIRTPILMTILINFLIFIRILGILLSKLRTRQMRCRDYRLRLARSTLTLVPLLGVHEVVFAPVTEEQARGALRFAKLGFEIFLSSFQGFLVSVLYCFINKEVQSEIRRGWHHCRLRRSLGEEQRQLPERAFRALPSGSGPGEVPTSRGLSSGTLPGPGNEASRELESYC
Experimental: (§1) Experimental protocol: Cells were seeded in a total volume of 20 μL into white walled, 384-well microplates and incubated at 37° C. overnight prior to testing. Prior to testing cell plating media was exchanged with 10 μL of Assay buffer (HBSS+10 mM HEPES). All compounds were run in assay buffer containing 0.1% casein. Briefly, intermediate dilution of sample stocks was performed to generate 4× sample in assay buffer. 5 μL of 4× sample was added to cells and incubated at 37° C. for 30 minutes. Final assay vehicle concentration was 1%. […] Microplates were read following signal generation with PerkinElmer Envision instrument for chemiluminescent signal detection.
(§2) The results are expressed as a percent efficacy relative to the maximum response of the control ligand.

Human GLP-1R [3] = molecular target: T1, Human GLP-1R; assay: GPCR cell-based cAMP assay, human GLP-1 receptor; design: expressed in transfected cells; host or cells: CHO-K1, stably transfected; settings: stably transfected CHO-Kl cells, 0.1% casein
Experimental: as §1, §2
Target sequence in this assay (P43220 24-463): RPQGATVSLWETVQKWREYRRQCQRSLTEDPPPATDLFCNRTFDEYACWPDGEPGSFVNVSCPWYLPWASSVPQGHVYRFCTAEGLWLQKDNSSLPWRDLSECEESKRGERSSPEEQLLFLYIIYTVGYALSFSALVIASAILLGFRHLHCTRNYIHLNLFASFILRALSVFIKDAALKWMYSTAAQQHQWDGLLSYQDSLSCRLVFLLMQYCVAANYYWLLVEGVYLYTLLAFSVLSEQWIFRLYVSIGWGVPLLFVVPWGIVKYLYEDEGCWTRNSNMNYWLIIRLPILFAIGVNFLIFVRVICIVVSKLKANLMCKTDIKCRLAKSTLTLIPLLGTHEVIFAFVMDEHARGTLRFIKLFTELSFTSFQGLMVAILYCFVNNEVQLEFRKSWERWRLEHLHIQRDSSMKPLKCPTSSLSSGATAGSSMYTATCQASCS

DIO mice = assay: Food intake and body weight after repeated dosing in DIO mice; format: in vivo, C57BL/6j male mice; settings: daily injection 10 nmol/kg for 20 days
Experimental: (§3) Differences were considered statistically significant at p<0.05. Data analysis was carried out with GraphPad software (GraphPad Prism).

lean mice = assay: Acute food intake in lean mice after single s.c. administration; format: in vivo, C57BL/6j male mice; settings: mean ± SEM
Experimental: as §3

Human CalcitoninR = molecular target: T4, Human CalcitoninR (Homo sapiens, UniProt P30988); assay: GPCR cell-based cAMP assay, human calcitonin receptor; settings: stably transfected CHO-Kl cells, 0.1% casein
T4 construct: expressed in transfected cells; host or cells: CHO-K1, stably transfected
T4 sequence (P30988 25-474): T2 sequence (looked up)
Experimental: as §1, §2

lean rats = assay: Acute food intake and body weight reduction in lean rats; format: in vivo, Sprague Dawley male rats; settings: single s.c. 10 nmol/Kg, mean ± SEM
Experimental: Food intake was measured at different time-intervals post-injection up to 72 h using a precision balance. Cumulative food intake was calculated for the indicated time-periods. Body weight was measured at the indicated time-periods. Mean of cumulative food intake in each dose group was compared to vehicle and reported as a percentage of mean reduction relative to vehicle.
All data shown are the mean±standard error (SEM).

Human Calc/RAMP3R (AMY3) = molecular target: T5, Human Calc/RAMP3R (AMY3) (Homo sapiens, UniProt O60896+P30988); assay: GPCR cell-based cAMP assay, human AMY3 receptor; settings: stably transfected CHO-Kl cells, 0.1% casein
T5 construct: expressed in transfected cells; host or cells: CHO-K1, stably transfected
T5 sequence (P30988 25-474): T2 sequence (looked up)
T5 sequence (O60896 24-148 partner): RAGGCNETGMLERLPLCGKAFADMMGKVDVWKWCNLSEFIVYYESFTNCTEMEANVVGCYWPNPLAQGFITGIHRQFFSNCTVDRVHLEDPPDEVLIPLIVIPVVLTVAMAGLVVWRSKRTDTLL
Experimental: as §1, §2

4 h fasted mice = assay: Blood glucose after single administration of peptides; format: in vivo; settings: 4 h fasted mice, single s.c. 10 nmol/Kg, mean ± SEM
Experimental: as §3

[4] = molecular target: T6, human GIP receptor (human) (UniProt P48546); assay: cell-based or functional assay
T6 sequence (looked up): T3 sequence (P48546 22-466)

Exendin-4 (from UniProt P26349 48-86) (peptide)
EC50 (nM), cell-based cAMP assay, CHO-K1 cells (Human GLP-1R [1]): 0.002 nM

Calcitonin (peptide)
EC50 (nM), cell-based cAMP assay, CHO-K1 cells [2]: 0.026 nM

CC[C@H](C)[C@H](NC(=O)[C@H](CC(C)C)NC(=O)[C@H](Cc1c[nH]c2ccccc12)NC(=O)[C@H](CCC(N)=O)NC(=O)[C@@H](NC(=O)[C@H](Cc1ccccc1)NC(=O)[C@H](C)NC(=O)[C@H](CCC(N)=O)NC(=O)[C@H](CCC(N)=O)NC(=O)[C@H](C)NC(=O)[C@@H](NC(=O)[C@H](CCCCN)NC(=O)[C@H](CC(=O)O)NC(=O)[C@H](CC(C)C)NC(=O)C(C)(C)NC(=O)[C@@H](NC(=O)[C@H](CO)NC(=O)[C@H](Cc1ccc(O)cc1)NC(=O)[C@H](CC(=O)O)NC(=O)[C@H](CO)NC(=O)[C@@H](NC(=O)[C@H](Cc1ccccc1)NC(=O)[C@@H](NC(=O)CNC(=O)[C@H](CCC(=O)O)NC(=O)C(C)(C)NC(=O)[C@@H](N)Cc1ccc(O)cc1)[C@@H](C)O)[C@@H](C)O)[C@@H](C)CC)[C@@H](C)CC)C(C)C)C(=O)N[C@@H](C)C(=O)NCC(=O)NCC(=O)N1CCC[C@H]1C(=O)N[C@@H](CO)C(=O)N[C@@H](CCCCN)C(=O)N[C@H]1CSSC[C@@H](C(=O)N[C@H](C(=O)N[C@@H](CC(C)C)C(=O)NCC(=O)N[C@@H](CCCNC(=N)N)C(=O)N[C@@H](CC(C)C)C(=O)N[C@@H](CO)C(=O)N[C@@H](CCC(N)=O)C(=O)N[C@@H](CCC(=O)O)C(=O)N[C@@H](CC(C)C)C(=O)N[C@@H](Cc2c[nH]cn2)C(=O)N[C@@H](CCCNC(=N)N)C(=O)N[C@@H](CC(C)C)C(=O)N[C@@H](CCC(N)=O)C(=O)N[C@H](C(=O)N[C@@H](Cc2ccc(O)cc2)C(=O)N2CCC[C@H]2C(=O)N[C@@H](CCCNC(=N)N)C(=O)N[C@H](C(=O)N[C@@H](CC(N)=O)C(=O)N[C@H](C(=O)NCC(=O)N[C@@H](CCCCNC(=O)COCCOCCNC(=O)COCCOCCNC(=O)CC[C@H](NC(=O)CCCCCCCCCCCCCCCCC(=O)O)C(=O)O)C(=O)N[C@@H](CC(N)=O)C(=O)N[C@H](C(=O)N[C@@H](Cc2ccc(O)cc2)C(N)=O)[C@@H](C)O)[C@@H](C)O)[C@@H](C)O)[C@@H](C)O)C(C)C)NC(=O)[C@H]([C@@H](C)O)NC(=O)[C@H](C)NC(=O)[C@H]([C@@H](C)O)NC(=O)[C@H](CC(N)=O)NC1=O [SEQ ID NO. 47, Y-Aib-E-G-T-F-T-S-D-Y-S-I-Aib-LDKIAQQAFVQWLIAGGPSKCNTATCVLGRLSQELHRLQTYPRTNTGK*-N-T-Y-NH2-acetate salt (wherein K* = Lys(AEEAc-AEEAc-γ-Glu-17-carboxyheptadecanoyl))]
EC50 (Human GIPR): 0.121 nM
EC50 (Human GLP-1R [3]): 0.438 nM
Effect on fasting insulin (DIO mice; 4 h fasted, FIG. 5): reduced
Effect on fasting serum glucose (DIO mice; 4 h fasted, FIG. 5): reduced
Effect on food intake in DIO mice (DIO mice; FIG. 2): reduce
Effect on body weight in DIO mice (DIO mice; FIG. 3): reduce
Effect on fat mass, assessed by MRI (DIO mice; FIG. 4): reduction of fat mass
Cumulative food intake reduction relative to vehicle (lean mice; Table 12, 10 nmol/Kg, 8 H): 64.7 ± 2.16 %
Cumulative food intake reduction relative to vehicle (lean mice; Table 12, 10 nmol/Kg, 24 H): 65.4 ± 1.53 %
Cumulative food intake reduction relative to vehicle (lean mice; Table 12, 10 nmol/Kg, 48 H): 42.3 ± 1.61 %
Cumulative food intake reduction relative to vehicle (lean mice; Table 12, 10 nmol/Kg, 72 H): 26.0 ± 2.27 %
Cumulative food intake reduction relative to vehicle (lean mice; Table 13, 10 nmol/Kg, 8 H): 62.5 ± 2.81 %
Cumulative food intake reduction relative to vehicle (lean mice; Table 13, 10 nmol/Kg, 24 H): 49.0 ± 5.24 %
Cumulative food intake reduction relative to vehicle (lean mice; Table 13, 10 nmol/Kg, 48 H): 28.0 ± 3.62 %
Cumulative food intake reduction relative to vehicle (lean mice; Table 13, 10 nmol/Kg, 72 H): 14.8 ± 2.78 %
Cumulative food intake reduction relative to vehicle (lean mice; Table 13, 30 nmol/Kg, 8 H): 83.6 ± 2.44 %
Cumulative food intake reduction relative to vehicle (lean mice; Table 13, 30 nmol/Kg, 24 H): 64.5 ± 4.61 %
Cumulative food intake reduction relative to vehicle (lean mice; Table 13, 30 nmol/Kg, 48 H): 36.7 ± 2.82 %
Cumulative food intake reduction relative to vehicle (lean mice; Table 13, 30 nmol/Kg, 72 H): 25.2 ± 2.60 %
EC50 (Human CalcitoninR): 0.185 nM
Cumulative food intake reduction vs vehicle (lean rats; 4 H): 14.0 ± 7.72%
Cumulative food intake reduction vs vehicle (lean rats; 12 H): 40.6 ± 4.52 %
Cumulative food intake reduction vs vehicle (lean rats; 24 H): 40.8 ± 4.23 %
Cumulative food intake reduction vs vehicle (lean rats; 48 H): 30.1 ± 3.03 %
Cumulative food intake reduction vs vehicle (lean rats; 72 H): 14.3 ± 2.53 %
Food intake reduction by intervals vs vehicle (lean rats; interval 0-4 H): 14.0 ± 7.72%
Food intake reduction by intervals vs vehicle (lean rats; interval 4-12 H): 48.7 ± 5.41 %
Food intake reduction by intervals vs vehicle (lean rats; interval 12-24 H): 42.9 ± 9.15 %
Food intake reduction by intervals vs vehicle (lean rats; interval 24-48 H): 19.3 ± 2.41 %
Food intake reduction by intervals vs vehicle (lean rats; interval 48-72 H): −23.3 ± 4.52 %
EC50 (Human Calc/RAMP3R (AMY3)): 0.353 nM
Blood glucose, 120 min (4 h fasted mice; 120 min after injection): 102.2 ± 4.08 mg/dL
Blood glucose, 240 min (4 h fasted mice; 240 min after injection): 77.0 ± 3.75 mg/dL
Blood glucose, Time 0 (4 h fasted mice; Time 0 (baseline)): 174.7 ± 3.62 mg/dL

GIP (peptide)
EC50 (nM), cell-based cAMP assay, CHO-K1 cells [4]: 0.075 nM
